In assay [1] the target is T1, hTAS2R39 (Homo sapiens, UniProt P59534).
T1 construct: first 45 amino acids of rat somatostatin receptor type 3 (sst3 membrane-targeting tag) (N); expressed in transfected cells; host or cells: HEK293 T-Rex Flp-In cells stably expressing Gα16-gust44; receptor in pcDNA5/FRT, induced with doxycycline
T1 sequence (P59534 1-338): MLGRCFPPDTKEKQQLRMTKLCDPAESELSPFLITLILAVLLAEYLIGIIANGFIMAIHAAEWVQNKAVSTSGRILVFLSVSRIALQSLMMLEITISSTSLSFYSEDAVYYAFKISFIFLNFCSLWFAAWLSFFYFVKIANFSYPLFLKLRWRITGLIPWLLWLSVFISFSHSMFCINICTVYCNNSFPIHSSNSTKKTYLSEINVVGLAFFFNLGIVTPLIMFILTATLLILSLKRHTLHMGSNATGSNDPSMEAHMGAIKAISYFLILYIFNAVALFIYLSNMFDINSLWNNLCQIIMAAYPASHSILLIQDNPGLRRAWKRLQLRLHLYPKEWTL
Description: Calcium assay of hTAS2R39 activation/inhibition in HEK293 T-Rex Flp-In cells. The following applies: for reduction of ECG response on hTAS2R39 (screening for inhibition): simultaneous application of 200 μM ECG and 250 μM flavanone, inhibition when response ratio <1; for EC80 on hTAS2R39: agonist dose-response curve. The class given is cell-based.

Assay [2] has as its target T1, hTAS2R39. Also noted: method as in PMID 24117141. Conditions: cited from earlier work.
For the next assay, the target named is T2, hTAS2R14 (Homo sapiens, UniProt Q9NYV8).
T2 construct: first 45 amino acids of rat somatostatin receptor type 3 (sst3 membrane-targeting tag) (N); expressed in transfected cells; host or cells: HEK293 T-Rex Flp-In cells stably expressing Gα16-gust44; induced with doxycycline
T2 sequence (Q9NYV8 1-317): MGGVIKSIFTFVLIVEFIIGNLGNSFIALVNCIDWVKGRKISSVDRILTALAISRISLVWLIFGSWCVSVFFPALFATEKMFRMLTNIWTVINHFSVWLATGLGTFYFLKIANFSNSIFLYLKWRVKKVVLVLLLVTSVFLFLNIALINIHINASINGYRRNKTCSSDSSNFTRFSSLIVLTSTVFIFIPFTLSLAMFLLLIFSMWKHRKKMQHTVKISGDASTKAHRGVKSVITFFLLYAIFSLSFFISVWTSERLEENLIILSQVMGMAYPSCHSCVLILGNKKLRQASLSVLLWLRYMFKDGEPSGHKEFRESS
As to the kind of experiment: Calcium assay of hTAS2R14 activation/inhibition in HEK293 T-Rex Flp-In cells. In kind it is cell-based. Conditions: for EC80 on hTAS2R14: agonist concentration used in inhibition tests; for IC50, Simultaneous / Threshold, Simultaneous: simultaneous addition, n.b. = no blocking. The source says: For functional expression of the human bitter taste receptor hTAS2R39, HEK293 T-Rex Flp-In cells (Invitrogen, San Diego, CA, USA) were used, stably expressing the chimeric G-protein α-subunit Gα16-gust44 (cloned into pcDNA4 (Invitrogen)) and the human bitter receptor genes for hTAS2R39 (cloned into pcDNA5/FRT (Invitrogen)). The bitter receptor gene contained a DNA sequence encoding the first 45 amino acids of rat somatostatin receptor type 3 at its 5′ end (the receptor expression was achieved according to [18] with exception of the HSV-tag), in order to improve membrane targeting of the receptor protein. The same procedure was applied for stable expression of hTAS2R14. Cells were maintained in Dulbecco's Modified Eagle's Medium (DMEM) and 10% (v/v) tetracycline-free FBS (both Lonza, Verviers, Belgium) supplemented with blasticidin (5 μg/mL), geneticin (400 μg/mL) and hygromycin (100 μg/mL) (all from Invitrogen). Cells were grown and maintained at 37 °C and 5% (v/v) CO2.
Cells were seeded into poly-L-lysine-coated (Sigma-Aldrich) 96-well plates (black wall, clear bottom, Greiner bio-one, Frickenhausen, Germany) at a density of 7*10^3 cells in 100 μL/well and cultured for 24 h. Transcription of the receptors was induced by adding 0.25 μg/mL doxycycline (Sigma-Aldrich). […] One hour after loading, cells were washed with Tyrode's buffer and taken up in Tyrode's buffer. Stock solutions of test compounds were prepared in DMSO and diluted to the appropriate concentration in Tyrode's buffer, not exceeding a DMSO concentration of 1% (v/v).
(§1) Two methods of compound administration were applied: simultaneous and stepwise addition of potential antagonist and agonist. The first 17 s before compound addition were used for baseline determination. For the simultaneous method, agonist and potential antagonist were pre-mixed, administered after 17 s, and fluorescence was measured for in total 90 s. For the stepwise method, after 17 s, the potential antagonist was added, fluorescence was measured until 120 s, and after 120 s the agonist was added and measured for another 120 s, in total 240 s. […] Each experiment was performed at least in duplicate in separate experiments (as indicated for each figure).
Data processing was done as reported previously. In brief, SoftMax Pro 5.4 software (Molecular Devices Corporation) was used to plot the fluorescence signals. The fluorescence value (ΔF/F0), representing receptor activity, was calculated by subtracting the baseline fluorescence (F0) prior to loading from the maximum fluorescence (F) after compound addition, divided by the signal of the baseline in order to normalize background fluorescence. Dose-response curves were established as non-linear regression curves using Graph Pad Prism (version 4 for Windows, Graph Pad Software, San Diego, CA, USA). Half-maximal effective concentrations (EC50) and half-maximal inhibitory concentrations (IC50) were calculated. Error bars reflect the standard error of the mean (SEM). Statistical analysis was performed in Graph Pad Prism (one-way ANOVA at 5% risk level, followed by Bonferroni's post hoc test).
Inhibition was indicated when [drawing 1] . In case of indicated inhibition, flavanones were applied at different concentrations, in order to test for dose-dependent inhibition, at the EC80 concentration of the agonist. […] To investigate the specificity of flavanones for inhibition of hTAS2R39 and hTAS2R14, another bitter taste receptor, hTAS2R16 (not known to be activated by flavonoids), was used in inhibition experiments ( File S3 ) towards its agonist salicin.

The target in the next assay is T3, hTAS2R16 (Homo sapiens, UniProt Q9NYV7).
T3 construct: expressed in transfected cells; host or cells: induced versus non-induced cells
T3 sequence (Q9NYV7 1-291): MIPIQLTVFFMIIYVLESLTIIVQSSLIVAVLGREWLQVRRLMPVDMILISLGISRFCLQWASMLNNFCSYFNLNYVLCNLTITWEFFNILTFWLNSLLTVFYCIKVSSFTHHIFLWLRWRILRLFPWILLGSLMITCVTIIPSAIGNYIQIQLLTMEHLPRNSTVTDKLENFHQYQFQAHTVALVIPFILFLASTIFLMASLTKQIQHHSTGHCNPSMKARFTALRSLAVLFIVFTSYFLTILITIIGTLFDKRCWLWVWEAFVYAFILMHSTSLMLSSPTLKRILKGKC
Description: Calcium assay of hTAS2R16 activation/inhibition (salicin as agonist). In kind it is cell-based. As for the experimental part:
Cells were seeded into poly-L-lysine-coated (Sigma-Aldrich) 96-well plates (black wall, clear bottom, Greiner bio-one, Frickenhausen, Germany) at a density of 7*10^3 cells in 100 μL/well and cultured for 24 h. Transcription of the receptors was induced by adding 0.25 μg/mL doxycycline (Sigma-Aldrich). Cells were induced for 24 h and then loaded with the calcium-sensitive fluorescent dye Fluo-4-AM (2.5 μM, Invitrogen), which was dissolved in Tyrode's buffer containing 5% (v/v) tetracycline-free FBS (Lonza). One hour after loading, cells were washed with Tyrode's buffer and taken up in Tyrode's buffer. Stock solutions of test compounds were prepared in DMSO and diluted to the appropriate concentration in Tyrode's buffer, not exceeding a DMSO concentration of 1% (v/v).
as §1, with “Receptor activation or inhibition was measured via intracellular Ca^2+ release in a FlexStation II 384 or FlexStation III (Molecular Devices Corporation, Sunnyvale, CA, USA) by measuring fluorescence (excitation 485 nm/emission 520 nm) for either 90 s or 240 s at 37°C. Two” for “Two”
Screening for hTAS2R39 inhibition by flavanones was performed with simultaneous application of agonist (200 μM ECG) and putative antagonist (250 μM flavanone). Inhibition was indicated when [drawing 1] . In case of indicated inhibition, flavanones were applied at different concentrations, in order to test for dose-dependent inhibition, at the EC80 concentration of the agonist. Another agonist of hTAS2R39, denatonium benzoate, was used in inhibition experiments at 1.7 mM (EC80). hTAS2R14 inhibition was tested with 640 μM ECG or 70 μM genistein as agonists, representing their respective EC80 concentrations. To investigate the specificity of flavanones for inhibition of hTAS2R39 and hTAS2R14, another bitter taste receptor, hTAS2R16 (not known to be activated by flavonoids), was used in inhibition experiments ( File S3 ) towards its agonist salicin.
SUPPORTING INFORMATION to the article “6-Methoxyflavanones as Bitter Taste Receptor Blockers for hTAS2R39” by Roland, WSU; Gouka, RJ; Gruppen, H; Driesse, M; van Buren, L; Smit, G; Vincken, J-P File S3 Investigation of identified inhibitors on hTAS2R16.
To investigate whether the hTAS2R39 inhibitors 6,3’-dimethoxyflavanone (3), 4’- fluoro-6-methoxyflavanone (6), and 6-methoxyflavanone (11) were able to inhibit a bitter receptor not known for flavonoid activation, hTAS2R16 was selected for inhibition experiments. Measuring dose-response curves of the hTAS2R16 agonist […]
Figure S3. Inhibition of response of 10 mM salicin (---) on hTAS2R16 (induced (●), non-induced (○)) by 4’-fluoro-6-methoxyflavanone (6) after simultaneous addition (A) and stepwise addition (B), by 6,3’-dimethoxyflavanone (3) after simultaneous addition (C) and stepwise addition (D), and by 6-methoxyflavanone (11) after simultaneous addition (E) and stepwise addition (F). […]

The next assay deals with bitter taste. Also noted: method as in PMID 16028996. Conditions: in-vivo sensory masking, unknown mechanism; cited from earlier work.
[3] abbreviates: inhibition of hTAS2R14 response to 70 μM genistein.
The mark [4] stands for this setting: inhibition of hTAS2R14 response to 640 μM ECG.
Where [5] appears, read: 0 μM 4′-fluoro-6-methoxyflavanone (6), stepwise addition, read-out: EC50 of agonist on hTAS2R39.

Each structure is given as a SMILES string. Read-outs that look alike come from different tables or passages of the source.

As for `COc1ccc(C2CC(=O)c3ccccc3O2)cc1` (stereo not shown) [Compound 13, 4′-Methoxyflavanone], at hTAS2R39 [1], the “reduction of ECG response on hTAS2R39 (screening for inhibition)” value (“reduction … (screening for inhibition)” for short) is “did not show inhibitory activity”.
Consider `O=C1CC(c2ccccc2)Oc2ccccc21` (stereo not shown) [Compound 5, Flavanone], for which, at hTAS2R39 [1], the “reduction … (screening for inhibition)” value is given as “did not show inhibitory activity”. For the same compound, the “activation of hTAS2R39 in a previous study” value on hTAS2R39 [2] was “b no activation of hTAS2R39 in a previous study [16]”.
As for `O=c1c(-c2ccc(O)cc2)coc2cc(O)cc(O)c12` [genistein, reference compound], the “EC80 on hTAS2R14” value at hTAS2R14 is 70 µM.
Turning to `COc1ccc2c(c1)OC(c1ccccc1)CC2=O` (stereo not shown) [Compound 12, 7-Methoxyflavanone], the “reduction … (screening for inhibition)” value at hTAS2R39 [1] is “did not show inhibitory activity”.
As for `O=C1CC(c2ccccc2)Oc2ccc(O)cc21` (stereo not shown) [Compound 8, 6-Hydroxyflavanone], the “reduction … (screening for inhibition)” value on hTAS2R39 [1] was “did not show inhibitory activity”.
Regarding `COc1cccc(C2CC(=O)c3cc(OC)ccc3O2)c1` (stereo not shown) [Compound 3, 6,3′-Dimethoxyflavanone], the “inhibition of salicin response on hTAS2R16” value at hTAS2R16 (10 mM salicin, simultaneous and stepwise addition) is on record as “no inhibition”. Moreover, at hTAS2R14 (setting [3]), the “IC50, Simultaneous” value is “n.b” and the “Threshold, Simultaneous” value is reported as “n.b”. For the same compound, on hTAS2R14 (setting [4]), the “IC50, Simultaneous” value is recorded as “n.b” and the “Threshold, Simultaneous” value is on record as “n.b”. Besides, the IC50 (in general, the concentration that gives 50% inhibition) at hTAS2R14 (inhibition of hTAS2R14 response to 640 μM ECG, stepwise addition) is approximately 250 µM.
In the case of `COc1ccc2oc(-c3ccccc3)cc(=O)c2c1` [6-methoxyflavone, reference compound], the “inhibition of hTAS2R39 activation” value on hTAS2R39 [1] (data not shown) is reported as “unable to inhibit hTAS2R39 activation”.
Turning to `COc1cc([C@@H]2CC(=O)c3c(O)cc([O-])cc3O2)ccc1O.[Na+]` [homoeriodictyol Na-salt, reference compound], the “reduction of the bitter taste of different chemical classes of bitter molecules” value with bitter taste is listed as “up to 40%”.
As to `O=C(O[C@@H]1Cc2c(O)cc(O)cc2O[C@@H]1c1ccc(O)c(O)c1)c1cc(O)c(O)c(O)c1` [ECG, Epicatechin gallate, reference compound], the 50% effective concentration (EC50) (commonly the midpoint of the concentration-response curve) at hTAS2R39 [1] (setting [5]) turned out to be 128 ± 82 µM. The “EC80 on hTAS2R39” value on hTAS2R39 [1] came out at 200 µM. The “EC80 on hTAS2R14” value on hTAS2R14 amounted to 640 µM.
As for `CC[N+](CC)(CC(=O)Nc1c(C)cccc1C)Cc1ccccc1` [Denatonium benzoate, denatonium benzoate, reference compound], the concentration giving a half-maximal response (EC50) at hTAS2R39 [1] (setting [5]) was 659 ± 334 µM; on hTAS2R39 [1] (agonist dose-response curve (data not shown), read-out: EC50 on hTAS2R39), 711 µM. The “EC80 on hTAS2R39” value at hTAS2R39 [1] stood at 1700 µM.
Regarding `O=C1CC(c2ccc(O)cc2)Oc2ccccc21` (stereo not shown) [Compound 10, 4′-Hydroxyflavanone], at hTAS2R39 [2], the “activation of hTAS2R39 in a previous study” value is “b no activation of hTAS2R39 in a previous study [16]”.
With `OCc1ccccc1O[C@@H]1O[C@H](CO)[C@@H](O)[C@H](O)[C@H]1O` [salicin, reference compound], the “EC80 on hTAS2R16” value at hTAS2R16 (agonist dose-response curve) was found to be 10000 µM.

These data come from PMC3983201, “6-Methoxyflavanones as Bitter Taste Receptor Blockers for hTAS2R39” (PLoS ONE, 2014).
